From US20260077051A1, “COMPOUNDS FOR THE DEGRADATION OF EGFR KINASE” (BeOne Medicines I GmbH, priority 2023, published 2026)

Tests used:
[1] = target: T1, EGFR L858R (BaF3-L858R cells) (Homo sapiens, UniProt P00533, L858R); assay: EGFR degradation in BaF3-L858R cells (HTRF assay); format: cell-based; details: 16 h treatment; for DC50: IC50(DC50) of EGFR degradation; for Dmax: maximum percentage of inhibition (degradation)
T1 construct: host or cells: BaF3
Experimental: BaF3-L858R (abbv. L858R) cell were purchased from Kangyuan Bochuang Biotechnology (Beijing) Co., Ltd.
(§1) H1975-#8 and BaF3-L858R cells are treated with compounds diluted in 0.1% DMSO cell culture medium on day 2, incubate for 16 h, 37° C., 5% CO2. the final concentration of compounds in all assay is start with 10 uM, 5-fold dilution, total 8 doses were included.
(§2) After 16 h treatment, for H1975-#8 cells, add 100 ul HTRF 1× lysis buffer to each well; for BaF3-L858R cells, add 20 μl 4× lysis buffer to each well; seal the plate and incubate 1 hour at room temperature on a plate shaker; Once the cells are lysed, 16 μL of cell lysate are transferred to a PE 384-well HTRF detection plate; 4 μL of pre-mixed HTRF antibodies are added to each well; Cover the plate with a plate sealer, spin 1000 rpm for 1 min, Incubate overnight at room temperature; Read on BMG PheraStar with HTRF protocol (337 nm-665 nm-620 nm).
(§3) The inhibition (degradation) percentage of the compound was calculated by the following equation:
(§4) High control=Cell group with added DMSO and without compound, indicating microplate readings without EGFR degradation;
(§5) Dmax is the maximum percentage of inhibition (degradation).
(§6) The IC50(DC50) value of a compound can be obtained by fitting the following equation
(§7) Wherein, X and Y are known values, and IC50, Hillslope, Top and Bottom are the parameters obtained by fitting with software. Y is the inhibition percentage (calculated from the equation), X is the concentration of the compound; IC50 is the concentration of the compound when the 50% inhibition is reached. The smaller the IC50 value is, the stronger the inhibitory ability of the compound is. Vice versa, the higher the IC50 value is, the weaker the ability the inhibitory ability of the compound is; Hillslope represents the slope of the fitted curve, generally around 1*; Bottom represents the minimum value of the curve obtained by data fitting, which is generally 0%±20%; Top represents the maximum value of the curve obtained by data fitting, which is generally 100%±20%. The experimental data were fitted by calculating and analyzing with Dotmatics data analysis software.

[2] = target: T2, EGFR-L858R/C797S (H1975-clone #8 cells) (Homo sapiens, UniProt P00533, C797S/L858R); assay: EGFR degradation in H1975-clone#8 (L858R/C797S) cells (HTRF assay); format: cell-based; details: 16 h treatment; for DC50: IC50(DC50) of EGFR degradation; for Dmax: maximum percentage of inhibition (degradation)
T2 construct: expressed in transfected cells; host or cells: H1975 (lentiviral transduction, endogenous EGFR knocked out, single clone #8)
Experimental: H1975-clone #8 (L858R/C797S): EGFR-L858R/C797S were stably expressed in H1975 cell lines by lentivirus-mediated over-expression, respectively. The EGFR over-expressed cells then underwent knockout, in which the EGFR targeting sgRNA was designed to only target the endogenous EGFR copies and preserve the exogenous EGFR copies. Followed by the knockout, the edited H1975 cells were seeded in 96 well plates at the concentration of […], cultured for about 2 weeks to allow single clones formation. The formed clones were screened by DNA sequencing and whole exon sequencing analysis for the desired edition. H1975-clone #8 were finally confirmed as homozygous L858R/C797S EGFR clones.
as §1, §2, §3, §4, §5, §6, §7

T2 sequence (P00533 25-1210 C797S/L858R): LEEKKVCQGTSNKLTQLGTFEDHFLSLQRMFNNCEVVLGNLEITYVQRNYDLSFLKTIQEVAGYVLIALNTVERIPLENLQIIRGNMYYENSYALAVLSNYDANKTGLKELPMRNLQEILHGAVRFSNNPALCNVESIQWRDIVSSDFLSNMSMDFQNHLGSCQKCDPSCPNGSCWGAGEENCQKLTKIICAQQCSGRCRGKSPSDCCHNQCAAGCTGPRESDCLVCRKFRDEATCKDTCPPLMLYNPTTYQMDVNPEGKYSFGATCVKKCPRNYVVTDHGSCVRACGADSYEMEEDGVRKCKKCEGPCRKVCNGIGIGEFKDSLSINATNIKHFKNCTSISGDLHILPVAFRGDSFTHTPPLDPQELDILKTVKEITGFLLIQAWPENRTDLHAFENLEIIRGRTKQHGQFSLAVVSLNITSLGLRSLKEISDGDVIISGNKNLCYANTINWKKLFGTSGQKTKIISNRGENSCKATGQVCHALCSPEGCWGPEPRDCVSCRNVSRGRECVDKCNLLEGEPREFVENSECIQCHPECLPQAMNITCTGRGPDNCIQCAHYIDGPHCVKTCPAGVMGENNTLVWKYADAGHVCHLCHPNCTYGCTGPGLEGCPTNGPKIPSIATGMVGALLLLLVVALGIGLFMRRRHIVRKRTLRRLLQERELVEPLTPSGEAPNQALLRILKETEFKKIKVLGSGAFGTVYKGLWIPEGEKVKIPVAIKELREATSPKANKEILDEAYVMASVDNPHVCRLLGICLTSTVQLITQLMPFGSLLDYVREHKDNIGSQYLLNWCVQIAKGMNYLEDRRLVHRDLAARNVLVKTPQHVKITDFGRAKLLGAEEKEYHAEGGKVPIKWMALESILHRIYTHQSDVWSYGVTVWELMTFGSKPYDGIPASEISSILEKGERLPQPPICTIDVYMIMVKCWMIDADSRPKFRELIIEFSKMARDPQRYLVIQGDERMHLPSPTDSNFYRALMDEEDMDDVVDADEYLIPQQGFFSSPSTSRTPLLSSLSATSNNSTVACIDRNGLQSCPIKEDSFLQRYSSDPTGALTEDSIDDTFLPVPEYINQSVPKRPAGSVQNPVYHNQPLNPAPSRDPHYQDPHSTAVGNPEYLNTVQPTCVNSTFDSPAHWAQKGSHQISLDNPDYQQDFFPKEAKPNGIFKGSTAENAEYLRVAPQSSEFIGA
T1 sequence (P00533 25-1210 L858R): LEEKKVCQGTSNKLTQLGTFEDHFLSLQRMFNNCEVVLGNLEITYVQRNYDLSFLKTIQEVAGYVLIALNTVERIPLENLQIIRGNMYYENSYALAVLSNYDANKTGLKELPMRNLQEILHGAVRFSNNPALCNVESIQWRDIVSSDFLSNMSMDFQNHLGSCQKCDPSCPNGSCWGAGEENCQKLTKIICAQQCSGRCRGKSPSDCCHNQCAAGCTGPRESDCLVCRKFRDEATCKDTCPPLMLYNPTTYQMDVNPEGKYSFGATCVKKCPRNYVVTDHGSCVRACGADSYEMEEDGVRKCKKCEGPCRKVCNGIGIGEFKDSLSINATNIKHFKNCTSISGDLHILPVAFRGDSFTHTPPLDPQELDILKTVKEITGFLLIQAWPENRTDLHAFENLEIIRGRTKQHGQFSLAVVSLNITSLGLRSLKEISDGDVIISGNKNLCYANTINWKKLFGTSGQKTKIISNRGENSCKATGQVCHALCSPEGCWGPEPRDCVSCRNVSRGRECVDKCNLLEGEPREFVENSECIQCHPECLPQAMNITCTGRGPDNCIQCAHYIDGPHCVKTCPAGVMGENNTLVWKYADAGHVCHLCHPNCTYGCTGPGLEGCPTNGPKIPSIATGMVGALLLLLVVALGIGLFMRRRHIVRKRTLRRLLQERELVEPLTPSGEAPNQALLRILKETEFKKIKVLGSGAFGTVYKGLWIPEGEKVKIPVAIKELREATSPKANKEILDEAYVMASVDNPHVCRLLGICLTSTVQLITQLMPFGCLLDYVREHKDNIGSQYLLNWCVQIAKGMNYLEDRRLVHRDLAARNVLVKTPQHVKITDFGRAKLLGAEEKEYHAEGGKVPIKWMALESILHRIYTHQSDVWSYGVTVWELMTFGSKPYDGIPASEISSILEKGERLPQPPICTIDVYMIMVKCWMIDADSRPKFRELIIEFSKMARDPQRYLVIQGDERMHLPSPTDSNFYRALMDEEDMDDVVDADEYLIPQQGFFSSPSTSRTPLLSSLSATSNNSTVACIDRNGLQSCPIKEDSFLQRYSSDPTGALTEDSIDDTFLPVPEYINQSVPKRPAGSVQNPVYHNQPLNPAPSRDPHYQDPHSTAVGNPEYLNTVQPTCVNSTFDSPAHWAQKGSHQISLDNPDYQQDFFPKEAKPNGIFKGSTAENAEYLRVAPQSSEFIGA

| DC50 [1] | Dmax [1] | DC50 [2] | Dmax [2] | Compound |
| --- | --- | --- | --- | --- |
| 2.42 nM | 91.5% | 1.65 nM | 57% | CCc1nc(C2CCC(=O)NC2=O)ccc1N1CCC(N2CCN(c3ccc4c(c3)N3C[C@@H]5C[C@@]5(C)CCOc5c(cnn5C)-c5cc(cc(C)n5)C(=O)/N=C/3N4)CC2)CC1 (stereo partly shown) [Example 25, 3-(6-ethyl-5-(4-(4-((7^1R,7^2S,E)-1^1,2^6,7^2-trimethyl-3-oxo-5^2,5^3-dihydro-1^1H,5^1H-10-oxa-4-aza-5 (2,1)-benzo[d]imidazola-2 (2,4)-pyridina-1 (4,5)-pyrazola-7 (1,2)-cyclopropanacyclodecaphane-5^6-yl)piperazin-1-yl)piperidin-1-yl)pyridin-2-yl)piperidine-2,6-dione] |
| 4.02 nM | 85.7% | 3.41 nM | 58.9% | COC[C@@H]1CN(c2ccc3c(c2)N2C[C@@H]4C[C@@]4(C)CCOc4c(cnn4C)-c4cc(cc(C)n4)C(=O)/N=C/2N3)CCN1C1CCN(c2cc(F)c([C@H]3CCC(=O)NC3=O)c(F)c2)CC1 [Example 26, (R)-3-(2,6-difluoro-4-(4-((S)-2-(methoxymethyl)-4-((7^1R,7^2S,E)-1^1,2^6,7^2-trimethyl-3-oxo-5^2,5^3-dihydro-1^1H,5^1H-10-oxa-4-aza-5 (2,1)-benzo[d]imidazola-2 (2,4)-pyridina-1 (4,5)-pyrazola-7 (1,2)-cyclopropanacyclodecaphane-5^6-yl)piperazin-1-yl)piperidin-1-yl)phenyl)piperidine-2,6-dione] |
| 1.25 nM | 79.1% | 1.31 nM | 63.6% | Cc1cc2cc(n1)-c1cnn(C)c1OCC[C@]1(C)C[C@H]1CN1/C(=N/C2=O)Nc2ccc(N3CCN(C4CN(C5CCN(c6cc(F)c([C@H]7CCC(=O)NC7=O)c(F)c6)CC5)C4)C[C@@H]3C)cc21 [Example 27, (R)-3-(2,6-difluoro-4-(4-(3-((S)-3-methyl-4-((7^1R,7^2S,E)-1^1,2^6,7^2-trimethyl-3-oxo-5^2,5^3-dihydro-1^1H,5^1H-10-oxa-4-aza-5 (2,1)-benzo[d]imidazola-2 (2,4)-pyridina-1 (4,5)-pyrazola-7 (1,2)-cyclopropanacyclodecaphane-5^6-yl)piperazin-1-yl)azetidin-1-yl)piperidin-1-yl)phenyl)piperidine-2,6-dione] |
| 6.31 nM | 78.2% | 2.71 nM | 49% | Cc1cc2cc(n1)-c1cnn(C)c1OCC[C@H]1C[C@@H]1CN1/C(=N/C2=O)Nc2ccc(N3CC4CCC3CN4C3CN(C4CCN(c5c(C)cc(C6CCC(=O)NC6=O)nc5C)CC4)C3)cc21 (stereo partly shown) [Example 28, 3-(5-(4-(3-(5-((7^1S,7^2R,E)-1^1,2^6-dimethyl-3-oxo-5^2,5^3-dihydro-1^1H,5^1H-10-oxa-4-aza-5 (2,1)-benzo[d]imidazola-2 (2,4)-pyridina-1 (4,5)-pyrazola-7 (1,2)-cyclopropanacyclodecaphane-5^6-yl)-2,5-diazabicyclo[2.2.2]octan-2-yl)azetidin-1-yl)piperidin-1-yl)-4,6-dimethylpyridin-2-yl)piperidine-2,6-dione] |
| 3.9 nM | 67.8% | 0.986 nM | 49.2% | Cc1cc2cc(n1)-c1cnn(C)c1OCC[C@]1(C)C[C@H]1CN1/C(=N/C2=O)Nc2ccc(N3CCC(C(=O)N4CCC(Oc5cc(F)c([C@H]6CCC(=O)NC6=O)c(F)c5)CC4)CC3)cc21 [Example 29, (R)-3-(2,6-difluoro-4-((1-(1-((7^1R,7^2S,E)-1^1,2^6,7^2-trimethyl-3-oxo-5^2,5^3-dihydro-1^1H,5^1H-10-oxa-4-aza-5 (2,1)-benzo[d]imidazola-2 (2,4)-pyridina-1 (4,5)-pyrazola-7 (1,2)-cyclopropanacyclodecaphane-5^6-yl)piperidine-4-carbonyl)piperidin-4-yl)oxy)phenyl)piperidine-2,6-dione] |
| 21 nM | 89.3% | 9.57 nM | 57.5% | Cc1cc2cc(n1)-c1cnn(C)c1OCC[C@H]1C[C@@H]1CN1/C(=N/C2=O)Nc2ccc(N3CCN([C@H]4CCN(c5cc(F)c(C6CCC(=O)NC6=O)nc5C)C[C@H]4F)CC3)cc21 (stereo partly drawn) [Example 30, 3-(5-((3R,4S)-4-(4-((7^1S,7^2R,E)-1^1,2^6-dimethyl-3-oxo-5^2,5^3-dihydro-1^1H,5^1H-10-oxa-4-aza-5 (2,1)-benzo[d]imidazola-2 (2,4)-pyridina-1 (4,5)-pyrazola-7 (1,2)-cyclopropanacyclodecaphane-5^6-yl)piperazin-1-yl)-3-fluoropiperidin-1-yl)-3-fluoro-6-methylpyridin-2-yl)piperidine-2,6-dione] |
| 4.61 nM | 89.5% | 9.56 nM | 69.3% | CCc1nc(C2CCC(=O)NC2=O)ccc1N1CC[C@H](N2CCN(c3ccc4c(c3)N3C[C@H]5C[C@@H]5CCOc5c(cnn5C)-c5cc(cc(C)n5)C(=O)/N=C/3N4)CC2)[C@H](F)C1 (stereo partly drawn) [Example 31, 3-(5-((3R,4S)-4-(4-((7^1S,7^2R,E)-1^1,2^6-dimethyl-3-oxo-5^2,5^3-dihydro-1^1H,5^1H-10-oxa-4-aza-5 (2,1)-benzo[d]imidazola-2 (2,4)-pyridina-1 (4,5)-pyrazola-7 (1,2)-cyclopropanacyclodecaphane-5^6-yl)piperazin-1-yl)-3-fluoropiperidin-1-yl)-6-ethylpyridin-2-yl)piperidine-2,6-dione] |
| 6.44 nM | 84.5% | 10.5 nM | 60.9% | CCc1nc(C2CCC(=O)NC2=O)ccc1N1CC[C@@H](N2CCN(c3ccc4c(c3)N3C[C@H]5C[C@@H]5CCOc5c(cnn5C)-c5cc(cc(C)n5)C(=O)/N=C/3N4)CC2)[C@@H](F)C1 (stereo partly drawn) [Example 32, 3-(5-((3S,4R)-4-(4-((7^1S,7^2R,E)-1^1,2^6-dimethyl-3-oxo-5^2,5^3-dihydro-1^1H,5^1H-10-oxa-4-aza-5 (2,1)-benzo[d]imidazola-2 (2,4)-pyridina-1 (4,5)-pyrazola-7 (1,2)-cyclopropanacyclodecaphane-5^6-yl)piperazin-1-yl)-3-fluoropiperidin-1-yl)-6-ethylpyridin-2-yl)piperidine-2,6-dione] |
| 8.38 nM | 89.1% | 4.74 nM | 44.3% | Cc1cc2cc(n1)-c1cnn(C)c1OCC[C@H]1C[C@@H]1CN1/C(=N/C2=O)Nc2ccc(N3CCN([C@@H]4CCN(c5c(C)cc(C6CCC(=O)NC6=O)nc5C)C[C@@H]4F)CC3)cc21 (stereo partly drawn) [Example 33, 3-(5-((3S,4R)-4-(4-((7^1S,7^2R,E)-1^1,2^6-dimethyl-3-oxo-5^2,5^3-dihydro-1^1H,5^1H-10-oxa-4-aza-5 (2,1)-benzo[d]imidazola-2 (2,4)-pyridina-1 (4,5)-pyrazola-7 (1,2)-cyclopropanacyclodecaphane-5^6-yl)piperazin-1-yl)-3-fluoropiperidin-1-yl)-4,6-dimethylpyridin-2-yl)piperidine-2,6-dione] |
| 7.47 nM | 83.8% | 11.9 nM | 57% | Cc1cc2cc(n1)-c1cnn(C)c1OCC[C@H]1C[C@@H]1CN1/C(=N/C2=O)Nc2ccc(N3CCN([C@@H]4CCN(c5cc(F)c(C6CCC(=O)NC6=O)nc5C)C[C@@H]4F)CC3)cc21 (stereo partly drawn) [Example 34, 3-(5-((3S,4R)-4-(4-((7^1S,7^2R,E)-1^1,2^6-dimethyl-3-oxo-5^2,5^3-dihydro-1^1H,5^1H-10-oxa-4-aza-5 (2,1)-benzo[d]imidazola-2 (2,4)-pyridina-1 (4,5)-pyrazola-7 (1,2)-cyclopropanacyclodecaphane-5^6-yl)piperazin-1-yl)-3-fluoropiperidin-1-yl)-3-fluoro-6-methylpyridin-2-yl)piperidine-2,6-dione] |
